What follows are molecules tested against T1, Acyl-CoA: Cholesterol Acyltransferase (ACAT) (Rattus norvegicus, UniProt Q7TQM4) (assay: Inhibition of Acyl-CoA: Cholesterol Acyltransferase (ACAT) in Hepatic Microsomes). Conditions: 14C-oleoyl-CoA, pH 7.4, 37° C., read-out: In Vitro ACAT IC50.
T1 construct: Microsomes were obtained by differential centrifugation; from tissue; host or cells: liver microsomes of male Sprague Dawley rats
T1 sequence (Q7TQM4 1-524): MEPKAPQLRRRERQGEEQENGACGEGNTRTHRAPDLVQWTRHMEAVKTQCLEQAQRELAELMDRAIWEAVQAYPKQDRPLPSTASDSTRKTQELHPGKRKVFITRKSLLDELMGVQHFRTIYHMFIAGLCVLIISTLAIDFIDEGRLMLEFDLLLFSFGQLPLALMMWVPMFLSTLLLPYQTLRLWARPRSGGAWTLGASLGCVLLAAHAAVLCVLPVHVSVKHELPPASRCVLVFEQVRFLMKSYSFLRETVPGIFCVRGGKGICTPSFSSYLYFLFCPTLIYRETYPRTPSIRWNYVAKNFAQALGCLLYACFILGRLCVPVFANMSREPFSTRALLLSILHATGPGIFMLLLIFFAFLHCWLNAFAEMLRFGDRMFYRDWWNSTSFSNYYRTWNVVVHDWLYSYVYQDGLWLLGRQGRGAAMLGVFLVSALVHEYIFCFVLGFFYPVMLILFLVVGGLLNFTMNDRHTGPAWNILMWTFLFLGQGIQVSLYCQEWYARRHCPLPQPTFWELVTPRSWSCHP
Type: biochemical, Sprague Dawley rats
Method: A. Assay of the Inhibition of Acyl-CoA: Cholesterol Acyltransferase (ACAT) in Hepatic Microsomes
The ability of the compounds to inhibit ACAT, the enzyme responsible for the intracellular synthesis of cholesteryl esters, was tested as follows. Male Sprague Dawley rats weighing 150-300 g, were fed rat chow ad libitum. The animals were fasted for twenty-four hours prior to being sacrificed by decapitation. The livers were perfused in situ with 50 ml of cold 0.25M sucrose, excised, and homogenized in three volumes of 0.1M phosphate buffer, pH 7.4, that contained 0.5 mM EDTA (ethylenediaminetetraacetic acid), 1.0 mM glutathione, 0.25M sucrose and […]. Microsomes were obtained by differential centrifugation; the supernatant from an initial spin at 15,000×g for 15 minutes was centrifuged at 105,000×g for 1 hour to pellet the microsomes. The microsomes were suspended in homogenization buffer, reisolated by centrifugation, and stored at -70° C. Microsomes were used within one month of preparation.
The control assay in a final volume of 200 μl consisted of 200 μg of microsomal protein, 75 μM ^14 C-oleoyl-CoA (10,000 dpm/nmol) in 0.1M phosphate, pH 7.4, that contained 1 mM glutathione. Compounds were added in 5 μl of DMSO (dimethyl sulfoxide) and additional controls were run with DMSO only. All components, except the oleoyl-CoA, were preincubated for 15 min. at 37° C. prior to the initiation of the reaction by the addition of oleoyl-CoA. The assay was terminated after 10 min by the addition of 4 ml of chloroform:methanol (2:1, v/v). 20,000 dpm of 3H-cholesteryl oleate and 10 μg of unlabeled cholesteryl oleate and oleic acid were added as an internal standard and carriers, respectively. After allowing 10 min. for lipid extraction, the samples were centrifuged at 1,000×g for 10 min. to separate the solvent layers. The chloroform layer containing the neutral lipids was spotted onto a Baker SI250-Pa silica gel TLC plate and the plate developed using a hexane: diethyl ether: acetic acid (170:30:1 v/v/v) mobile phase. The lipids were visualized by their interaction with iodine vapor and the cholesteryl ester spot was scraped into a scintillation vial and counted.

SMILES | IC50 [nM]
CCCCCCCN(CCCCCSc1nc(-c2ccccc2)c(-c2ccccc2)n1C)C(=O)Nc1ccc(F)cc1F [Example 6, N'-(2,4-difluorophenyl)-N-heptyl-N-[5-(1-methyl-4,5-diphenyl-1H-imidazol-2-ylthio]pentyl]urea] | 3600
CCCCCCCN(CCSc1nc(-c2ccccc2)c(-c2ccccc2)[nH]1)C(=O)Nc1ccc(F)cc1F [Example 189, N'-(2,4-difluorophenyl)-N-[2-(4,5-diphenyl-1H-imidazol-2-ylthio)ethyl]-N-heptylurea] | 70
CCCCCCCN(CCCCCSc1nc(-c2ccccc2)c(-c2ccccc2)[nH]1)C(=O)Nc1ccc(-c2ccccc2)cc1 [Example 192, N'-[(1,1'-biphenyl)-4-yl]-N-[5-(4,5-diphenyl-b 1H-imidazol-2-ylthio)pentyl]-N-heptylurea] | 70
CCCCCCCCNC(=O)N(CCCCCSc1nc(-c2ccccc2)c(-c2ccccc2)[nH]1)c1ccc(F)cc1F [Example 206, N-(2,4-difluorophenyl)-N-[5-(4,5-diphenyl-1H-imidazol-2-ylthio)pentyl]-N'-octylurea] | 40
CC(C)NC(=O)N(CCCCCSc1nc(-c2ccccc2)c(-c2ccccc2)[nH]1)c1ccccc1 [Example 261] | 80
CC(C)NC(=O)N(CCCCCSc1nc(-c2ccccc2)c(-c2ccccc2)[nH]1)c1ccc(F)cc1F [Example 263] | 40
CCCCCCCN(CCCCCSc1nc(-c2ccccc2)c(-c2ccccc2)[nH]1)C(=O)Nc1c(C(C)C)cccc1C(C)C [Example 266] | 230
CCCCCCCN(CCCCCSc1nc(-c2ccccc2)c(-c2ccccc2)[nH]1)C(=S)Nc1ccc(F)cc1F [Example 276, N'-(2,4-difluorophenyl]-N-[5-(4,5-diphenyl-1H-imidazol-2-ylthio)pentyl]-N-heptylthiourea] | 58
CCCCCCCN(CCCCCNc1nc(-c2ccccc2)c(-c2ccccc2)[nH]1)C(=O)Nc1ccc(F)cc1F [Example 338, N' -(2,4-difluorophenyl)-N-[5-(4,5-diphenyl-1H-imidazol-2-ylamino)pentyl]-N-heptylurea] | 3500
CCCCCCCN(CCCCCCc1nc(-c2ccccc2)c(-c2ccccc2)[nH]1)C(=O)Nc1ccc(F)cc1F [Example 339, N'-(2,4-difluorophenyl)-N-[6-(4,5-diphenyl-1H-imidazol-2-yl)hexyl]-N-heptylurea] | 280
CCCCCCCN(CCCCCSc1nc(-c2ccccc2)c(-c2ccccc2)[nH]1)C(=O)Cc1ccc(-c2ccccc2)cc1 [Example 343, N-[5-(4,5-diphenyl-1H-imidazol-2-ylthio)pentyl]-N-heptyl[1,1'-biphenyl]-4-acetamide] | 160
CCCCCCCN(CCCCCSc1nc(-c2ccccc2)c(-c2ccccc2)[nH]1)C(=O)CC1CCCCC1 [Example 344] | 30
CCCCCCCN(CCCCCSc1nc(-c2ccccc2)c(-c2ccccc2)[nH]1)C(=O)c1ccc(F)cc1F [Example 345] | 60
CCCCCCCN(CCCCCSc1nc(-c2ccccc2)c(-c2ccccc2)[nH]1)C(=O)c1ccccc1 [Example 346] | 50
CCCCCCCN(CCCCCSc1nc(-c2ccccc2)c(-c2ccccc2)[nH]1)C(=O)OC1CCCCC1 [Example 401, cyclohexyl [5-(4,5-diphenyl-1H-imidazol-2-ylthio)pentyl]heptylcarbamate] | 50
CCCCCCCN(CCCCCSc1nc(-c2ccccc2)c(-c2ccccc2)[nH]1)C(=O)Oc1ccccc1 [Example 402, Phenyl [5-(4,5-diphenyl-1H-imidazol-2-ylthio)pentyl]heptylcarbamate] | 20
CCCCCCCN(CCCCCSc1nc(-c2ccccc2)c(-c2ccccc2)[nH]1)C(=N)Nc1ccccc1 [Example 499, N-[5-(4,5-diphenyl-1H-imidazol-2-ylthio)pentyl]-N-heptyl-N'-phenylguanidin] | 3160

Second part, the molecule after the results:

IC50 [nM] | SMILES
8 | CCCCCCCN(CCCCCCCCSc1nc(-c2ccccc2)c(-c2ccccc2)[nH]1)C(=O)Nc1ccc(F)cc1F [Example 3, N'-(2,4-difluorophenyl)-N-[8-(4,5-diphenyl-1H-imidazol-2-ylthio)octyl]-N-heptylurea]
10 | CCCCCCCN(CCCCCSc1nc(-c2ccccc2)c(-c2ccccc2)[nH]1)C(=O)NCCC [Example 8, N-[5-(4,5-diphenyl-1H-imidazol-2-ylthio)pentyl]-N-heptyl-N'-propylurea]
10 | CCCCCCCN(CCCCCSc1nc(-c2ccccc2)c(-c2ccccc2)[nH]1)C(=O)NC1CCCCC1 [Example 94, N'-cyclohexyl-N-[5-(4,5-diphenyl-1H-imidazol-2-ylthio)pentyl]-N-heptylurea]
20 | CCCCCCCN(CCCCCSc1nc(-c2ccccc2)c(-c2ccccc2)[nH]1)C(=O)NC(C)C [Example 105, N-[5-(4,5-diphenyl-1H-imidazol-2-ylthio)pentyl]-N-heptyl-N'-(1-methylethyl)urea]
30 | CCCN(CCCCCSc1nc(-c2ccccc2)c(-c2ccccc2)[nH]1)C(=O)Nc1ccc(F)cc1F [Example 190]
20 | CCCCCCCCNC(=O)N(CCCCCSc1nc(-c2ccccc2)c(-c2ccccc2)[nH]1)c1c(F)cc(F)cc1F [Example 208]
8 | CCCCCCCN(CCCCC[S+]([O-])c1nc(-c2ccccc2)c(-c2ccccc2)[nH]1)C(=O)Nc1ccc(F)cc1F (stereo not drawn) [Example 278, N'-(2,4-difluorophenyl)-N-[5-(4,5-diphenyl-1H-imidazol-2-ylsulfinyl)pentyl]-N-heptylurea]
16 | CCCCCCCN(CCCCCS(=O)(=O)c1nc(-c2ccccc2)c(-c2ccccc2)[nH]1)C(=O)Nc1ccc(F)cc1F [Example 281, N'-(2,4-difluorophenyl)-N-[5-[(4,5-diphenyl-1H-imidazol-2-yl)sulfonyl]pentyl]-N-heptylurea]
30 | CCCCCCCN(CCCCCSc1nc(-c2ccccc2)c(-c2ccccc2)[nH]1)C(=S)Nc1c(F)cc(F)cc1F [Example 298, N-[5-(4,5-diphenyl-1H-imidazol-2-ylthio)pentyl]N-heptyl-N'-(2,4,6-trifluorophenyl)thiourea]
25 | CCCCCCCN(CCCCCSc1nc(-c2ccccc2)c(-c2ccccc2)[nH]1)C(=O)Cc1ccc(F)cc1F [Example 340, 2,4-difluoro-N-[(5-(4,5-diphenyl-1H-imidazol-2-ylthio)pentyl)]-N-heptylbenzeneacetamide]
